Data taken from ChEMBL document CHEMBL4765340, “Novel potent antiplatelet thrombotic agent derived from biguanide for ischemic stroke” (Eur J Med Chem, 2020).
Calls of active or inactive are those of the source. No cut-off for these calls is given here.

Legend:
[1] = system: Mus musculus; assay: Antithrombotic activity in calcein-labelled platelet-mediated ferric chloride-induced arterial injury thrombosis C57BL/6J mouse model assessed as thrombus weight at 200 mg/kg, po administrated twice a day measured upto 7 days (reference value: 3.3 +/- 0.3 mg); type: functional; conditions: time day <=7
[2] = Toxicity against C57BL/6J mouse assessed as body weight at 200 mg/kg twice a day measured after 60 days; type: organism-based; conditions: in vivo, 1440 h, time 60 day
[3] = Toxicity in calcein-labelled platelet-mediated ferric chloride-induced arterial injury thrombosis po dosed C57BL/6J mouse model assessed as change in coagulation factor V treated twice a day measured upto 7 days; type: organism-based; conditions: in vivo, 168 h, time <=7 day
[4] = system: Mus musculus; assay: Antithrombotic activity in calcein-labelled platelet-mediated ferric chloride-induced arterial injury thrombosis C57BL/6J mouse model assessed as average time to occlusive thrombosis at 300 mg/kg, po administrated twice a day measured upto 7 days (reference value: 7.9 +/- 0.7 min); type: functional; conditions: time day <=7
[5] = Cmax in Sprague-Dawley rat at 200 mg/kg, po compound dissolved in DMSO measured after 2 hr by HPLC-MS/MS analysis; type: ADME, organism-based; set-up: route oral, time 2 hrs, dose 200 mg/kg; conditions: in vivo
[6] = system: Mus musculus; assay: Antithrombotic activity in transient focal cerebral ischemic mouse model occlusion induced 60 mins of the right middle cerebral artery followed by reperfussion 23 hrs assessed as decrease in mortality rate at 200 mg/kg, po twice daily for 7 days […]; type: functional, organism-based; conditions: time 7.0 day
[7] = Toxicity in C57BL/6J mouse assessed as change in sodium level at 200 mg/kg twice daily for 60 days relative to control; type: organism-based; conditions: in vivo, 1440 h, time 60 day
[8] = Toxicity in C57BL/6J mouse assessed as change in mean platelet volume at 200 mg/kg twice daily for 60 days relative to control; type: organism-based; conditions: in vivo, 1440 h, time 60 day

For `CN(C)C(=N)NC(=N)NS(=O)(=O)C(F)(F)F`, the Activity [1] was 0.4 mg, the Activity [2] was “Non-Toxic” and the Activity [3] was “Non-Toxic”. For the same compound, the Time [4] was 22.1 min, the Cmax [5] was 24300 ng/mL and the Activity [6] was “Active”. The Activity [7] was “Non-Toxic” and the Activity [8] was “Non-Toxic”.
